Measurements published in patent US6486199B1, “Spiro and dispiro 1,2,4-trioxolane antimalarials” (Medicines for Malaria Venture MMV International Centre …, priority 2001, dated 2002).
Converted amounts (≈) assume the structure as drawn. Where two headings read alike, the source gives them in different places. Marks after values point to notes of the source that are not given here.

What was measured:
[1] = test system: chloroquine-resistant K1 strain of P. falciparum; test: in vitro screen against chloroquine-resistant K1 strain of P. falciparum; format: cell-based; conditions: for IC50: Plasmodium falciparum
[2] = test system: chloroquine-sensitive NF54 strain of P. falciparum; test: in vitro screen against chloroquine-sensitive NF54 strain of P. falciparum; format: cell-based; conditions: for IC50: Plasmodium falciparum
[3] = test system: ANKA strain of P. Berghei; test: single dose STI in vivo screen in infected Moro SPF mice; conditions: for inhibition in vivo at 10 mg/kg: Plasmodium berghei, 72 h; for antimalarial activity, overall assessment: overall judgement of in vitro and in vivo data of Table 2; for Activity (%) po / Activity (%) sc: percent reduction in parasitemia day 3 post-infection
[4] = test system: P. berghei; test: 1-day Peters test against P. berghei in vivo; conditions: for ED50 / ED90: Plasmodium berghei, 24 h; for ED90: read-out: P. berghei (1 day) ED90 po; for oral activity based on po ED50/ED90 values: ranking among trioxolanes and controls
[5] = test system: parasitemia; test: onset of drug action and recrudescence after single oral dose; format: in vivo; conditions: for Recrudescence (>5% parasitemia) occurs on day: single 100 mg/kg po on day +3 post-infection
Method: The reduction of parasitemia was monitored 12 h after treatment, and the time of recrudescence was assessed by daily blood smears for 14 days, followed by intermittent assessment for up to 30 days.

[6] = test system: NB2a cell line; test: neurotoxicity against the NB2a cell line; format: cell-based
[7] = test system: 21-day-old schistosomules of Schistosoma mansoni; test: effect on 21-day-old schistosomules in mice; format: in vivo; conditions: single 200 mg/kg per os; for FWR (%): female worm reduction rate; for Mean female worm burden: mean ± standard deviation; for TWR (%): total worm reduction rate
Method: […] Each group was treated per os with OZ compounds at a single dose of 200 mg/kg. Untreated mice served as the control. All groups were killed 4 weeks after treatment and the liver and intestine were removed and separated. The liver and intestine were compressed and alive male and female worms could be seen and counted. The effect of the compounds was evaluated by mean total and female worm burden.

[8] = test system: adult schistosomes (49-day-old) of Schistosoma mansoni; test: effect on adult schistosomes (49-day-old) in mice; format: in vivo; conditions: single 400 mg/kg per os; for TWR (%): total worm reduction rate; for Mean total worm burden: x ± SD
Method: Mice were infected with 100 Schistosoma mansoni cercariae […]. Each group was treated per os with OZ compounds at a single dose of 400 mg/kg. Untreated mice served as the control. All groups were killed 4 weeks after treatment and the liver and intestine were removed and separated. The liver and intestine were compressed and alive male and female worms could be seen and counted.

[9] = differential scanning calorimetry (DSC), thermal stability; format: physicochemical; conditions: thermal decomposition
[10] = test system: adult schistosomes (49-day-old) of Schistosoma mansoni; test: effect on adult schistosomes (49-day-old) in mice; format: in vivo; conditions: dose used was 200 mg/kg; for TWR (%): total worm reduction rate; for Mean total worm burden: x ± SD
[11] = test system: P. berghei; test: 4-day Peters test against P. berghei in vivo; conditions: 4 day
[12] = NF54, read-out: IC50 (ng/ml) NF54
[13] = po, read-out: P. berghei (1 day) ED50 po
[14] = sc, read-out: P. berghei (1 day) ED50 sc

C[C@H]1[C@H](OC(=O)CCC(=O)O)O[C@@H]2O[C@@]3(C)CC[C@H]4[C@H](C)CC[C@@H]1[C@@]24OO3 [Artesunate, artesunate, reference compound]
IC50 ([1]; K1, read-out: IC50 (ng/ml) K1): 1.2 ng/mL (≈ 0.00312 µM) | IC50 [2, 12]: 1.2 ng/mL (≈ 0.00312 µM) | inhibition in vivo at 10 mg/kg ([3]; po, read-out: Activity (%) po): 83.3% | inhibition in vivo at 10 mg/kg ([3]; sc, read-out: Activity (%) sc): 81.1% | Survival (days) po ([3]; single 10 mg/kg po): 7.1 days | Survival (days) sc ([3]; single 10 mg/kg sc): 8.0 days | P. berghei (1 day) ED90 sc ([4]; sc): 16 mg/kg | ED50 [4, 13]: 5 mg/kg | ED90 ([4]; po): 13 mg/kg | ED50 [4, 14]: 0.86 mg/kg | Recrudescence (>5% parasitemia) occurs on day [5]: 2 days | onset of action: decline in parasitemia ([5]; single 100 mg/kg po, monitored 12 h after treatment): rapid decline in parasitemia

C1C2CC3CC1CC(C2)C31OOC2(O1)C1CC3CC(C1)CC2C3 (stereo not drawn) [OZ04, Adamantane-2-spiro-3′-1′,2′,4′-trioxolane-5′-spiro-2″-adamantane]
antimalarial activity, overall assessment [3]: completely inactive | Activity (%) po ([3]; single 100 mg/kg po): 0/0% | Activity (%) sc ([3]; single 100 mg/kg sc): 0/0% | Survival (days) po ([3]; single 100 mg/kg po, survival to day 30 = cure): 5.3/5.3 days | Survival (days) sc ([3]; single 100 mg/kg sc, survival to day 30 = cure): 5.3/5.3 days | IC50 ([6]; NB2a cell line): 44 µM | FWR (%) [7]: 7% | Mean female worm burden [7]: 11.6 ± 3.2^a | TWR (%) [7]: 7% | Percentage of dead worm [8]: 0 | Total dead worm [8]: 0 | TWR (%) [8]: 0% | Mean total worm burden [8]: 37.6 ± 13.4 | Tm dec. (° C.) [9]: 150.8 °C

CCOC(=O)CCC1CCCCC12OOC1(CCCCC1)O2 (stereo not drawn) [OZ07, 1-[2-(Ethoxycarbonyl)ethyl]-7,14,15-trioxadispiro[5.1.5.2]pentadecane]
IC50 ([1]; in vitro, K1 strain, read-out: IC50 (ng/ml) K1): 66 ng/mL (≈ 0.211 µM) | IC50 ([2]; in vitro, NF54 strain, read-out: IC50 (ng/ml) NF54): 49 ng/mL (≈ 0.157 µM) | antimalarial activity, overall assessment [3]: less active | Activity (%) po ([3]; single 100 mg/kg po): 0/0% | Activity (%) sc ([3]; single 100 mg/kg sc): 0/0% | IC50 [6]: 27 µM

CCOC(=O)CCC1CCCCC12OOC1(O2)C2CC3CC(C2)CC1C3 (stereo not drawn) [OZ08, Adamantane-2-spiro-3′-6′-[2′-(ethoxycarbonyl)ethyl]-1′,2′,4′-trioxaspiro[4.5]decane]
antimalarial activity, overall assessment [3]: more active | IC50 ([6]; NB2a cell line): 42 µM

O=C1C2C3CC4C5C3C1C5C1(OOC3(O1)C1CC5CC(C1)CC3C5)C42 (stereo not drawn) [OZ14, Adamantane-2-spiro-3′-1′,2′,4′-trioxolane-5′-spiro-8″-11″-oxopentacyclo[5.4.0.0^2″,6″.0^3″,10″.0^5″,9″]undecane]
FWR (%) [7]: 0% | Mean female worm burden [7]: 12.4 ± 4.2 | TWR (%) [7]: 7% | Tm dec. (° C.) [9]: 113.3 °C | Percentage of dead worm [10]: 0 | Total dead worm [10]: 0 | TWR (%) [10]: 0% | Mean total worm burden [10]: 44.5 ± 13.2

C1CCCCCC2(CCCCC1)OOC1(O2)C2CC3CC(C2)CC1C3 (stereo not drawn) [OZ20, Adamantane-2-spiro-3′-1′,2′,4′-trioxaspiro[4.11]hexadecane]
IC50 ([1]; K1, read-out: IC50 (ng/ml) K1): 15 ng/mL (≈ 0.043 µM) | in vitro potency, fold less potent than the analog ([1]; in vitro): order of magnitude | IC50 [2, 12]: 20 ng/mL (≈ 0.0574 µM) | P. berghei (1 day) ED90 sc ([4]; sc): 10 mg/kg | ED50 [4, 13]: 4.3 mg/kg | ED90 ([4]; po): 9.7 mg/kg | ED50 [4, 14]: 7.1 mg/kg | FWR (%) [7]: 0% | Mean female worm burden [7]: 13.8 ± 5.5 | TWR (%) [7]: 0% | Percentage of dead worm [8]: 0 | Total dead worm [8]: 0 | TWR (%) [8]: 0% | Mean total worm burden [8]: 38.6 ± 3.6 | Tm dec. (° C.) [9]: 170.5 °C

CCOC(=O)N1CCC2(CC1)OOC1(O2)C2CC3CC(C2)CC1C3 (stereo not drawn) [OZ23, Adamantane-2-spiro-3′-8′-ethoxycarbonyl-1′,2′,4′-trioxa-8′-azaspiro[4.5]decane]
in vivo activity ([3]; 10 mg/kg po/sc data of Table 2): best in vivo activity | P. berghei (1 day) ED50 po ([4]; po): 1.6 mg/kg | P. berghei (1 day) ED90 po ([4]; po): 5.5 mg/kg | P. berghei (1 day) ED90 sc ([4]; sc): NA/1.9 mg/kg | oral activity based on po ED50/ED90 values ([4]; po): only slightly less orally active than OZ11 | P. berghei (4 day) ED50 po [11]: 0.9 mg/kg | P. berghei (4 day) ED90 po [11]: 2.0 mg/kg | P. berghei (4 day) ED50 sc [11]: 0.5 mg/kg | P. berghei (4 day) ED90 sc [11]: 0.9 mg/kg | FWR (%) [7]: 84% | Mean female worm burden [7]: 2.0 ± 1.0^b | TWR (%) [7]: 90% | Tm dec. (° C.) [9]: 160.8 °C | Percentage of dead worm [10]: 4 (5/124) | Total dead worm [10]: 5 | TWR (%) [10]: 0% | Mean total worm burden [10]: 39.7 ± 19.6

c1ccc(C2CCC3(CC2)OOC2(O3)C3CC4CC(C3)CC2C4)cc1 (stereo not drawn) [OZ27, Adamantane-2-spiro-3′-8′-phenyl-1′,2′,4′-trioxaspiro[4.5]decane]
IC50 (ng/ml) K1 ([1]; in vitro, K1 strain): 2.2 ng/mL (≈ 0.00646 µM) | IC50 (ng/ml) NF54 ([2]; in vitro, NF54 strain): 4.8 ng/mL (≈ 0.0141 µM) | antimalarial activity, overall assessment [3]: excellent activity | P. berghei (1 day) ED50 po ([4]; po): 1.9 mg/kg | P. berghei (1 day) ED90 po ([4]; po): 3.2 mg/kg | P. berghei (1 day) ED50 sc ([4]; sc): 1.8 mg/kg | P. berghei (1 day) ED90 sc ([4]; sc): 3.1 mg/kg | oral activity based on po ED50/ED90 values ([4]; po): only slightly less orally active than OZ11 | P. berghei (4 day) ED50 po [11]: 1.3 mg/kg | P. berghei (4 day) ED90 po [11]: 2.6 mg/kg | P. berghei (4 day) ED50 sc [11]: 0.2 mg/kg | P. berghei (4 day) ED90 sc [11]: 0.9 mg/kg | duration of action compared with artemether ([5]; single 100 mg/kg po): longer | Recrudescence (>5% parasitemia) occurs on day [5]: 11 days | FWR (%) [7]: 58% | Mean female worm burden [7]: 5.2 ± 1.6^b | TWR (%) [7]: 63% | Percentage of dead worm [8]: 9.6 (15/157) | Total dead worm [8]: 15 | TWR (%) [8]: 19.6% | Mean total worm burden [8]: 28.4 ± 9.5^a | Tm dec. (° C.) [9]: 161.7 °C

OC1CCC2(CC1)OOC1(O2)C2CC3CC(C2)CC1C3 (stereo not drawn) [OZ32, Adamantane-2-spiro-3′-8′-hydroxy-1′,2′,4′-trioxaspiro[4.5]decane]
IC50 (ng/ml) K1 ([1]; in vitro, K1 strain): 0.25 ng/mL (≈ 0.000892 µM) | IC50 (ng/ml) NF54 ([2]; in vitro, NF54 strain): 0.51 ng/mL (≈ 0.00182 µM) | P. berghei (1 day) ED50 po ([4]; po): 1.9 mg/kg | P. berghei (1 day) ED90 po ([4]; po): 13 mg/kg | P. berghei (1 day) ED50 sc ([4]; sc): > 1 mg/kg | P. berghei (1 day) ED90 sc ([4]; sc): 2.1 mg/kg | P. berghei (4 day) ED50 po [11]: 2.6 mg/kg | P. berghei (4 day) ED90 po [11]: 5.1 mg/kg | P. berghei (4 day) ED50 sc [11]: 0.6 mg/kg | P. berghei (4 day) ED90 sc [11]: 1.3 mg/kg | FWR (%) [7]: 70% | Mean female worm burden [7]: 3.8 ± 1.9^b | TWR (%) [7]: 73% | Percentage of dead worm [8]: 27.6 (50/181) | Total dead worm [8]: 50 | TWR (%) [8]: 26.8% | Mean total worm burden [8]: 26.2 ± 5.9^b | Tm dec. (° C.) [9]: 147.9 °C
